Where “and” joins values, the source holds several entries; their conditions need not be identical. Identical values can stand only once.
Tested on: neonatal rat cardiomyocytes
Assay: cDNA microarray analysis (Affymetrix Rat Expression Set 230), x-fold changes of clustered genes
Type: cell-based
Settings: 72 h; experiments (1) and (2); listed as FGF
Method: Animal experiments were performed in accordance with guidelines of Children's Hospital, Boston and UCLA. Ventricular cardiomyocytes from fetal (E19), 2-day-old (P2) and adult (250-350 g) Wistar rats (Charles River) were isolated as described with minor modifications (Engel et al. 1999; Engel et al. 2003). After digestion of fetal or neonatal hearts (0.14 mg/ml collagenase II (Invitrogen), 0.55 mg/ml pancreatin (Sigma)) cells were cultured in DMEM/F12 (GIBCO) containing 3 mM Na-pyruvate, 0.2% BSA, 0.1 mM ascorbic acid (Sigma), 0.5% Insulin-Transferrin-Selenium (100×), penicillin (100 U/ml), streptomycin (100 μg/ml), and 2 mM L-glutamine (GIBCO). Adult cardiomyocytes were cultured for 1 day in standard medium (DMEM, 25 mM Hepes, 5 mM taurine, 5 mM creatine, 2 mM L-carnitine (Sigma), 20 U/ml insulin (GIBCO), 0.2% BSA, penicillin (100 U/ml), and streptomycin (100 μg/ml)). Cells were stimulated in culture medium without BSA containing 2 mM L-glutamine. Neonatal and adult cardiomyocytes were initially cultured for 48 h in the presence of 20 μM cytosine β-D-arabinofuranoside (araC, Sigma) and 5% horse serum before stimulation to prevent proliferation of non-myocytes. Adult cardiomyocytes were incubated another 3 days with araC during stimulation. Neonatal cardiomyocytes were stimulated every day with growth factors for BrdU and H3P analyses (FGF1 and NRG-1-1β at 50 ng/ml, IL-1β at 100 ng/ml, R&D Systems, all diluted in 0.1% BSA/PBS). SB203580 and LY294002 (Calbiochem) was added every day. Adult cardiomyocytes were stimulated with fresh medium and SB203580 every 3 days.
RNA of neonatal cardiomyocytes was prepared 72 h after stimulation using Trizol (Invitrogen). RT-PCR was performed following standard protocols (Supplemental Table S4). Affymetrix technology was applied using the Rat Expression Set 230.
To determine the effect of p38 inhibition on cardiomyocyte differentiation and proliferation, a specific inhibitor of p38α and p38β, SB203580, was used and evaluated using cDNA microarray analyses using neonatal rat cardiomyocytes. […] Expression changes of a subset of genes were validated by RT-PCR.
Stimulation of neonatal cardiomyocytes with FGF1 induces fetal gene expression. To determine if FGF1, in combination with p38 inhibition, can reverse differentiation and induce cell cycle re-entry, we repeated cDNA microarray analyses (Supplemental Table S1). […]

Nuclear receptor co-activator NRIF3 expression, x-fold change: 1.4 x-fold and 1.2 x-fold
PTP-RL9, receptor-type protein tyrosine phosphatase expression, x-fold change: 1.1 x-fold and 0.8 x-fold
Protein-tyrosine phosphatase expression, x-fold change: 0.5 x-fold and 0.6 x-fold
RNA binding motif protein 5 expression, x-fold change: 0.6 x-fold and 0.5 x-fold
Rac GTPase-activating protein 1 expression, x-fold change: 1.3 x-fold and 1.9 x-fold
Retinoic acid receptor, gamma expression, x-fold change: 0.6 x-fold and 1.0 x-fold
Rho family GTPase 1 expression, x-fold change: 4.1 x-fold and 3.9 x-fold
SPARC related modular calcium binding 2 expression, x-fold change: 0.3 x-fold and 0.4 x-fold
Shc SH2-domain binding protein 1 expression, x-fold change: 1.6 x-fold and 1.1 x-fold
Soluble fibroblast growth factor receptor IIIb (sKGF-R gene) expression, x-fold change: 0.9 x-fold and 0.8 x-fold
Thymidine kinase expression, x-fold change: 1.5 x-fold and 1.9 x-fold
Topoisomerase (DNA) II alpha expression, x-fold change: 1.8 x-fold and 1.7 x-fold
Transferrin receptor expression, x-fold change: 2.9 x-fold and 1.6 x-fold
VEGF receptor-2FLK-1 expression, x-fold change: 1.8 x-fold and 1.6 x-fold
Substance: FGF1: growth factor FGF1 (R&D Systems)
Growth response protein (CL-6) expression, x-fold change: 2.5 x-fold and 1.8 x-fold
Hepatocyte F2alpha receptor expression, x-fold change: 0.9 x-fold and 1.0 x-fold
IBP6 expression, x-fold change: 0.6 x-fold and 0.9 x-fold
IGF1 expression, x-fold change: 0.5 x-fold and 0.3 x-fold
IGFBP3 expression, x-fold change: 0.3 x-fold and 0.4 x-fold
IL12a expression, x-fold change: 2.9 x-fold and 2.8 x-fold
IRX4 expression, x-fold change: 0.7 x-fold and 0.9 x-fold
Id1 expression, x-fold change: 2.7 x-fold and 2.3 x-fold
Id3a expression, x-fold change: 2.4 x-fold and 1.9 x-fold
Integrin, alpha 6 expression, x-fold change: 2.4 x-fold and 2.5 x-fold
Integrin, alpha 11 expression, x-fold change: 1.7 x-fold and 1.2 x-fold
Jag1 expression, x-fold change: 0.4 x-fold and 0.6 x-fold
Ki67 expression, x-fold change: 1.7 x-fold and 1.5 x-fold
Kinesin family member 22 expression, x-fold change: 1.6 x-fold and 1.7 x-fold
Kinetochore-associated protein 1 expression, x-fold change: 1.9 x-fold and 2.1 x-fold
Kruppel-like factor 2 expression, x-fold change: 0.7 x-fold and 0.9 x-fold
LDLR expression, x-fold change: 4.0 x-fold and 2.7 x-fold
Lgals1 expression, x-fold change: 1.8 x-fold and 1.7 x-fold
Lgals9 expression, x-fold change: 4.3 x-fold and 3.1 x-fold
Lhcgr expression, x-fold change: 0.4 x-fold and 0.8 x-fold
Lisch7 expression, x-fold change: 0.6 x-fold and 0.8 x-fold
Lot1 expression, x-fold change: 0.3 x-fold and 0.4 x-fold
M-protein expression, x-fold change: 8.7 x-fold and 11.0 x-fold
MAD2-LIKE 1 expression, x-fold change: 1.5 x-fold and 2.8 x-fold
MCAK expression, x-fold change: 1.8 x-fold and 1.7 x-fold
MCIP1 expression, x-fold change: 3.0 x-fold and 3.3 x-fold
MCP-3 expression, x-fold change: 1.3 x-fold and 0.7 x-fold
MDP77 expression, x-fold change: 1.5 x-fold and 0.8 x-fold
MKK6 expression, x-fold change: 0.2 x-fold and 0.1 x-fold
MLC1, atrial isoform expression, x-fold change: 3.3 x-fold and 2.8 x-fold
MLC 2a expression, x-fold change: 2.7 x-fold and 2.1 x-fold
MLC3, alkali expression, x-fold change: 13.9 x-fold and 23.2 x-fold
MPP1 expression, x-fold change: 1.4 x-fold and 2.0 x-fold
MURF1 expression, x-fold change: 0.6 x-fold and 0.5 x-fold
MURF expression, x-fold change: 0.8 x-fold and 0.9 x-fold
Mapt expression, x-fold change: 1.7 x-fold and 1.9 x-fold
Mdk expression, x-fold change: 0.4 x-fold and 0.6 x-fold
Melusin expression, x-fold change: 3.8 x-fold and 3.0 x-fold
Moesin expression, x-fold change: 2.2 x-fold and 2.4 x-fold
Multi PDZ domain protein 1 expression, x-fold change: 0.3 x-fold and 0.6 x-fold
Mustang expression, x-fold change: 4.8 x-fold and 5.2 x-fold
Myopodin expression, x-fold change: 3.7 x-fold and 3.2 x-fold
NppB expression, x-fold change: 10.4 x-fold and 11.6 x-fold
Nppa expression, x-fold change: 3.1 x-fold and 3.5 x-fold
Nr1h3 expression, x-fold change: 0.7 x-fold and 0.6 x-fold
Nrtn expression, x-fold change: 0.4 x-fold and 0.6 x-fold
Ntf3 expression, x-fold change: 0.2 x-fold and 0.3 x-fold
NuSAP expression, x-fold change: 1.5 x-fold and 1.4 x-fold
Osteoblast specific factor expression, x-fold change: 0.3 x-fold and 0.2 x-fold
P57 expression, x-fold change: 0.2 x-fold and 0.3 x-fold
PAPIN expression, x-fold change: 0.5 x-fold and 0.7 x-fold
PEA-15 expression, x-fold change: 2.5 x-fold and 2.1 x-fold
PRKAR2 expression, x-fold change: 1.6 x-fold and 1.2 x-fold
Pdcd4 expression, x-fold change: 0.8 x-fold and 0.7 x-fold
Pdgfra expression, x-fold change: 0.4 x-fold and 0.3 x-fold
Pem expression, x-fold change: 0.9 x-fold and 0.7 x-fold
Plasminogen activator inhibitor 1 expression, x-fold change: 5.3 x-fold and 8.8 x-fold
Pleiotrophin expression, x-fold change: 0.2 x-fold and 0.1 x-fold
Polyamine-modulated factor 1 expression, x-fold change: 1.5 x-fold and 1.4 x-fold
Prc1 expression, x-fold change: 2.4 x-fold and 1.9 x-fold
Prg-1 expression, x-fold change: 0.2 x-fold and 0.3 x-fold
Protease inhibitor 7 expression, x-fold change: 1.3 x-fold and 0.8 x-fold
Ptpla expression, x-fold change: 3.3 x-fold and 2.2 x-fold
Ptprc/CD45 expression, x-fold change: 0.5 x-fold and 0.7 x-fold
RAC2 expression, x-fold change: 0.7 x-fold and 0.6 x-fold
RAD51 expression, x-fold change: 1.5 x-fold and 1.0 x-fold
ROC2 expression, x-fold change: 1.6 x-fold and 2.4 x-fold
Retinoic acid inducible protein 3 expression, x-fold change: 1.5 x-fold and 1.3 x-fold
Rgpr expression, x-fold change: 0.6 x-fold and 0.9 x-fold
Rgs3 expression, x-fold change: 1.3 x-fold and 1.9 x-fold
Rho-related BTB domain containing 3 expression, x-fold change: 0.5 x-fold and 0.6 x-fold
SHARP-1/dec2/Bhlhb3 expression, x-fold change: 0.2 x-fold and 0.3 x-fold
STK38 expression, x-fold change: 3.9 x-fold and 2.0 x-fold
STk18 expression, x-fold change: 1.3 x-fold and 1.9 x-fold
Semaphorin 4B expression, x-fold change: 0.6 x-fold and 0.5 x-fold
Semaphorin 6D-1 expression, x-fold change: 0.5 x-fold and 0.3 x-fold
Sh3kbp1 expression, x-fold change: 1.1 x-fold and 0.9 x-fold
Smooth muscle 22 protein expression, x-fold change: 1.2 x-fold and 1.4 x-fold
Snf1lk expression, x-fold change: 3.5 x-fold and 3.9 x-fold
Sox4 expression, x-fold change: 0.7 x-fold and 0.6 x-fold
Sox11 expression, x-fold change: 0.9 x-fold and 1.3 x-fold
Spag5 expression, x-fold change: 1.4 x-fold and 1.9 x-fold
Sponf expression, x-fold change: 0.2 x-fold and 0.3 x-fold
Stathmin expression, x-fold change: 1.2 x-fold and 1.6 x-fold
TBX2 expression, x-fold change: 1.8 x-fold and 2.0 x-fold
Testin expression, x-fold change: 0.6 x-fold and 0.7 x-fold
Tgf beta 2 expression, x-fold change: 1.4 x-fold and 1.5 x-fold
Tgfbr2 expression, x-fold change: 0.5 x-fold and 0.9 x-fold
Tieg expression, x-fold change: 0.3 x-fold and 0.4 x-fold
Tmeff1 expression, x-fold change: 2.1 x-fold and 2.4 x-fold
Tnfrsf12a expression, x-fold change: 3.7 x-fold and 3.3 x-fold
Tspan-2 expression, x-fold change: 2.4 x-fold and 1.8 x-fold
Tspan-6 expression, x-fold change: 2.2 x-fold and 1.7 x-fold
Tubulin alpha-4 expression, x-fold change: 2.7 x-fold and 2.6 x-fold
Tubulin beta class I expression, x-fold change: 2.4 x-fold and 1.9 x-fold
Tubulin, beta 2 expression, x-fold change: 1.3 x-fold and 1.2 x-fold
Unc5h2 expression, x-fold change: 1.7 x-fold and 1.3 x-fold
VEGFD expression, x-fold change: 0.1 x-fold and 0.2 x-fold
Vegfc expression, x-fold change: 0.4 x-fold and 0.6 x-fold

From US20060281791A1, “Methods of increasing proliferation of adult mammalian cardiomyocytes through p38 map kinase inhibition” (CHILDREN'S MEDICAL CENTER CORPORATION, priority 2005, published 2006)
